Data on 2 compounds can be found in patent publication US20210179636A1, “ANTIBACTERIAL COMPOUNDS” (priority 2016, published 2021).

For orientation: IC50 means the concentration that inhibits the measured activity by half.

Each structure is given as a SMILES string. Converted amounts (≈) assume the structure as drawn. Read-outs that look alike come from different tables or passages of the source. Bounds are passed on as bounds.

Holding throughout (assay type): cell-based
The test system of data set [1] is Streptococcus pneumoniae ATCC 49619. The experiment in a line: MIC, broth microdilution (CLSI). Conditions: S. pneumoniae ATCC 49619, 16-20 h, mode of three experiments. Background: In broth dilution the organism is exposed to a series of concentrations in liquid medium.
In data set [2] the test system is Escherichia coli ATCC 25922. The experiment in a line: MIC, broth microdilution (CLSI). Conditions: E. coli ATCC 25922, 16-20 h, mode of three experiments.
The test system of data set [3] is Enterobacter cloacae NCTC 13406. As to the kind of experiment: MIC, broth microdilution (CLSI). As to conditions: E. cloacae NCTC 13406, 16-20 h, mode of three experiments.
The subject of data set [4] is Pseudomonas aeruginosa ATCC 27853. The experiment in a line: MIC, broth microdilution (CLSI). As to conditions: P. aeruginosa ATCC 27853, 16-20 h, mode of three experiments.
In data set [5] the test system is Haemophilus influenzae ATCC 49247. As to the kind of experiment: MIC, broth microdilution (CLSI). Conditions: H. influenzae ATCC 49247, 16-20 h, mode of three experiments.
The subject of data set [6] is Acinetobacter baumannii ATCC 19606. The experiment in a line: MIC, broth microdilution (CLSI). Conditions: A. baumannii ATCC 19606; 16-20 h; mode of three experiments.
Data set [7] relates to Klebsiella pneumoniae ATCC 700603. As to the kind of experiment: MIC, broth microdilution (CLSI). Conditions: K. pneumoniae ATCC 700603, 16-20 h, mode of three experiments.
Data set [8] deals with Staphylococcus aureus ATCC 29213. The experiment in a line: MIC, broth microdilution (CLSI). As to conditions: S. aureus ATCC 29213, 16-20 h, mode of three experiments.
The subject of a further data set is HepG2 ATCC HB-8065. The experiment in a line: Human cell viability assay (CellTiter-Glo). How it is done:
Compounds are assessed for potential non-specific cytotoxic effects against a human hepatic cell line (HepG2 ATCC HB-8065). HepG2 cells are seeded at 20,000 cells/well in 96-well microtitre plates in minimal essential medium (MEM) supplemented with a final concentration of 10% FBS and 1 mM sodium pyruvate. After 24 h compound dilutions are prepared in Dulbecco's minimum essential media (DMEM) supplemented with final concentrations of 0.001% FBS, 0.3% bovine albumin and 0.02% HEPES and added to cells. Compounds are tested in two-fold serial dilutions over a final concentration range of 1-128 μg/mL in a final DMSO concentration of 1% vol/vol. Chlorpromazine is used as a positive control. Cells are incubated with compound at 37° C. and 5% CO2 for a further 24 h, after which time the CellTiter-Glo reagent (Promega) is added. Luminescence is measured on a BMG Omega plate reader. Data are analysed using GraphPad Prism software to determine the concentration of compound that inhibits cell viability by fifty percent (IC50).

The test system of data set [9] is Acinetobacter baumannii NCTC 13420. The experiment in a line: MIC, broth microdilution (CLSI). Conditions: A. baumannii NCTC 13420, 16-20 h, mode of three experiments.
For data set [10], the system named is Mycobacterium smegmatis ATCC 19420. As to the kind of experiment: MIC, broth microdilution (CLSI). As to conditions: M. smegmatis ATCC 19420; 16-20 h; mode of three experiments.
Data set [11] deals with Klebsiella pneumoniae NCTC 13443. The experiment in a line: MIC, broth microdilution (CLSI). As to conditions: NCTC13443, K. pneumoniae NCTC 13443, 16-20 h, mode of three experiments.

For `COc1ccc2c3nocc3c(=O)n(CCN3C[C@H]4CN(c5ccc6c(n5)NC(=O)CO6)C(=O)O[C@H]4C3)c2c1` (relative stereo) [Compound 9, rel-(4aS*,7aR*-6-(2-{7-methoxy-4-oxo-4H,5H-[1,2]oxazolo[3,4-c]quinolin-5-yl}ethyl)-3-{3-oxo-2H,3H,4H-pyrido[3,2-b][1,4]oxazin-6-yl}-octahydropyrrolo[3,4-e][1,3]oxazin-2-one], the MIC result was “B (a MIC of from 1 to 10 is assigned the letter B)” in data set [1]; “C (a MIC of from 10 to 100 is assigned the letter C)” in data set [2]; “D (a MIC of over 100 is assigned the letter D)” in [3]; “D (a MIC of over 100 is assigned the letter D)” in data set [4]; “B (a MIC of from 1 to 10 is assigned the letter B)” in data set [5]; “A (an MIC (in μg/mL) of less or equal to 1 is assigned the letter A)” in [6]. The MIC entry was “D (a MIC of over 100 is assigned the letter D)” in data set [7], “A (an MIC (in μg/mL) of less or equal to 1 is assigned the letter A)” in [8], “D (a MIC of over 100 is assigned the letter D)” in data set [9] and “A (an MIC (in μg/mL) of less or equal to 1 is assigned the letter A)” in [10]. Also, the “IC50 HepG2” value with HepG2 ATCC HB-8065 (HepG2 cell viability, 24 h with compound, range 1-128 μg/mL) is “C (an IC50 of from 1 to 10 is assigned the letter C)”.

For `N#Cc1cccc(-c2cccc(CN3C[C@@H]4CN(c5ccc6c(n5)NC(=O)CO6)C(=O)O[C@H]4C3)c2O)n1` (relative stereo) [Compound 3], the MIC was 1 to 10 µg/mL (≈ 2.01 to 20.1 µM) in data set [1] (Streptococcus pneumoniae, ATCC49619, read-out: MIC); 1 to 10 µg/mL (≈ 2.01 to 20.1 µM) in data set [11]; 1 to 10 µg/mL (≈ 2.01 to 20.1 µM) in [2] (Escherichia coli, ATCC25922, read-out: MIC); greater than 100 µg/mL in data set [3] (Enterobacter cloacae, NCTC13406, read-out: MIC); greater than 100 µg/mL in data set [4] (Pseudomonas aeruginosa, ATCC27853, read-out: MIC); 1 to 10 µg/mL (≈ 2.01 to 20.1 µM) in data set [5] (Haemophilus influenzae, ATCC49247, read-out: MIC). Also, the MIC in data set [7] (Klebsiella pneumoniae, ATCC700603, read-out: MIC) was greater than 100 µg/mL; in data set [8] (Staphylococcus aureus, ATCC29213, read-out: MIC), less than 1 µg/mL; in [9] (Acinetobacter baumannii, NCTC13420, read-out: MIC), 1 to 10 µg/mL (≈ 2.01 to 20.1 µM). Besides, in the data set on HepG2 ATCC HB-8065 (Homo sapiens, HepG2 cell viability, 24 h with compound, range 1-128 μg/mL), the IC50 was 10 to 100 µg/mL (≈ 20.1 to 201 µM). In the data set with HepG2 ATCC HB-8065 (summary of Table 3), the “toxicity against HepG2 human hepatic cell line (in words)” value is reported as “acceptable level of hepatic toxicity”.
